Literature values as cited in patent US11154520B2, “Combination therapy for metastatic cancer” (General Oncology, Inc., priority 2015, dated 2021).

Details: decomposes intravascularly within seconds to 2,3-diketogulonic acid

- stability in blood: unstable
SMILES: O=C1O[C@H]([C@@H](O)CO)C(=O)C1=O [DHA, (5R)-5-[(1S)-1,2-dihydroxyethyl]oxolane-2,3,4-trione]
